pEC50: −log10 of the molar value.
Assays:
[1] = test system: monkey hepatocytes; assay: In vitro metabolism of Compound 2 in monkey cryopreserved hepatocytes; format: in vitro ADME, cynomolgus monkey; parameters: key to Relative abundance of metabolite of Compound 2, Monkey: ND Not detected.; trace: Trace: observed by HPLC/MS measurements only.; + Minor as assessed by HPLC/UV measurements; ++ moderate as assessed by HPLC/UV measurements; +++ major as assessed by HPLC/UV measurements.; * m/z 593 and m/z 505 co-eluted in rabbit hepatocytes.; ** m/z 591 c and m/z 593 were merged in human hepatocytes and Hepatopack.; *** m/z 607 and m/z 751 b were merged in rabbit hepatocytes; conditions: for metabolite of Compound 2 observed in monkey hepatocyte incubations: 10 μM Compound 2, 7.5×10^5 cells/mL, 1 and 4 hrs composite; for Relative abundance of metabolite of Compound 2, Monkey: monkey cryopreserved hepatocytes, HPLC/UV/MS
Description: (§1) Male CD-1 mouse hepatocytes (lot YHL), male Wistar-Han rat hepatocytes (Celsius; product number: M000065; lot: SLA), female New Zealand rabbit hepatocytes (lot 1510147), male cryopreserved cynomolgus monkey hepatocytes (Celsius; product number: M00305; lot: DNB) and mixed-gender cryopreserved human hepatocytes (Bioreclamation; product number: S01988; lot: DCM) were obtained for the hepatocyte in-vitro assessments.
(§2) At time 0 hrs 550 μL aliquots were removed from incubations and quenched with 5 volumes of ACN containing 0.1% formic acid. At 1 and 4 hrs, 275 μL aliquots were removed and quenched as above; these were combined in the same tube to prepare a composite sample. For all hepatocyte experiments, samples were processed by centrifugation at 1900×g for 5 minutes, and then the supernatant was transferred to clean glass tubes and evaporated to dryness under a stream of N2 using a Turbovap at 37° C. Sample residues were reconstituted in mobile phase prior to analysis by HPLC/UV/MS^n.
(§3) Samples were analyzed by HPLC/UV/MS^n using a Thermo Orbitrap Elite mass spectrometer in conjunction with a Thermo Open Accela UHPLC system. A 3.0×150 mm, 2.5 μm Acquity CSH C18 HPLC column (Waters) was heated to 45° C. for separation of analytes. The mobile phase was a gradient of A): water containing 0.1% formic acid, and B): acetonitrile. The flow rate was 450 μL/min, and the following gradient program was utilized: […]
(§4) UV absorbance was monitored with a photo-diode array detector from 220-450 nm. The mass spectrometer was operated in positive-ion mode with a HESI ion source at a potential of 3.0 kV, and capillary and source heater temperatures of 380 and 300° C., respectively. Sheath, auxiliary, and sweep gas flows were set to 45, 10, and 2 units, respectively. Full scan mass spectra were acquired over the range 120-1200 m/z at a resolving power of 30,000 (specified at m/z 400). Data-dependent MS^n spectra were acquired in an automated fashion at 15,000 resolving power using CID and HCD fragmentation with normalized collision energy settings of 28 and 65 V, respectively.
(§5) Metabolites were characterized by comparisons of mass spectral fragmentation patterns with that of a Compound 2 standard. All HPLC/UV/MS^n data were processed using Xcalibur v. 2.2, and integrated UV peak areas were subjected to weighted UV binning procedures utilizing an Excel template.

[2] = test system: rat hepatocytes; assay: In vitro metabolism of Compound 2 in rat cryopreserved hepatocytes; format: in vitro ADME; parameters: key to Relative abundance of metabolite of Compound 2, Rat: ND Not detected.; trace: Trace: observed by HPLC/MS measurements only.; + Minor as assessed by HPLC/UV measurements; ++ moderate as assessed by HPLC/UV measurements; +++ major as assessed by HPLC/UV measurements.; * m/z 593 and m/z 505 co-eluted in rabbit hepatocytes.; ** m/z 591 c and m/z 593 were merged in human hepatocytes and Hepatopack.; *** m/z 607 and m/z 751 b were merged in rabbit hepatocytes; conditions: for metabolite of Compound 2 observed in rat hepatocyte incubations: 10 μM Compound 2, 7.5×10^5 cells/mL, 1 and 4 hrs composite; for Relative abundance of metabolite of Compound 2, Rat: rat cryopreserved hepatocytes, HPLC/UV/MS
Description: as §1, §2, §3, §4, §5

[3] = test system: human hepatocytes; assay: In vitro metabolism of Compound 2 in human cryopreserved hepatocytes; format: in vitro ADME; parameters: key to Relative abundance of metabolite of Compound 2, Human: ND Not detected.; trace: Trace: observed by HPLC/MS measurements only.; + Minor as assessed by HPLC/UV measurements; ++ moderate as assessed by HPLC/UV measurements; +++ major as assessed by HPLC/UV measurements.; * m/z 593 and m/z 505 co-eluted in rabbit hepatocytes.; ** m/z 591 c and m/z 593 were merged in human hepatocytes and Hepatopack.; *** m/z 607 and m/z 751 b were merged in rabbit hepatocytes; conditions: for metabolite of Compound 2 observed in human hepatocyte incubations: 10 μM Compound 2, 7.5×10^5 cells/mL, 1 and 4 hrs composite; for Relative abundance of metabolite of Compound 2, Human: human cryopreserved hepatocytes, HPLC/UV/MS
Description: as §1, §2, §3, §4, §5

[4] = test system: rabbit hepatocytes; assay: In vitro metabolism of Compound 2 in rabbit cryopreserved hepatocytes; format: in vitro ADME; parameters: key to Relative abundance of metabolite of Compound 2, Rabbit: ND Not detected.; trace: Trace: observed by HPLC/MS measurements only.; + Minor as assessed by HPLC/UV measurements; ++ moderate as assessed by HPLC/UV measurements; +++ major as assessed by HPLC/UV measurements.; * m/z 593 and m/z 505 co-eluted in rabbit hepatocytes.; ** m/z 591 c and m/z 593 were merged in human hepatocytes and Hepatopack.; *** m/z 607 and m/z 751 b were merged in rabbit hepatocytes; conditions: for metabolite of Compound 2 observed in rabbit hepatocyte incubations: 10 μM Compound 2, 7.5×10^5 cells/mL, 1 and 4 hrs composite; for Relative abundance of metabolite of Compound 2, Rabbit: rabbit cryopreserved hepatocytes, HPLC/UV/MS
Description: as §1, §2, §3, §4, §5

[5] = test system: human co-cultured hepatocytes (Hepatopack); assay: In vitro metabolism of Compound 2 in human micropatterned co-cultured hepatocytes (Hepatopack); format: in vitro ADME; parameters: key to Relative abundance of metabolite of Compound 2, Hepatopack: ND Not detected.; trace: Trace: observed by HPLC/MS measurements only.; + Minor as assessed by HPLC/UV measurements; ++ moderate as assessed by HPLC/UV measurements; +++ major as assessed by HPLC/UV measurements.; * m/z 593 and m/z 505 co-eluted in rabbit hepatocytes.; ** m/z 591 c and m/z 593 were merged in human hepatocytes and Hepatopack.; *** m/z 607 and m/z 751 b were merged in rabbit hepatocytes; conditions: human co-cultured hepatocytes (Hepatopack); HPLC/UV/MS
Source text: Micro-patterned co-cultured (MPCC) hepatocyte 24-well plates containing human donors (16 wells each) were provided by Ascendance Biotechnology (formerly Hepregen Corp. (Medford, MA). [see Wang W W W, Khetani S R, Krzyzewski S, et al. Assessment of a Micropatterned Hepatocyte Coculture System to Generate Major Human Excretory and Circulating Drug Metabolites. Drug Metab Dispos 2010; 38(10):1900-5.] The MPCCs were created at Ascendance Biotechnology and maintained in serum containing medium for 5-6 days to allow for stabilization of the co-cultures prior to shipment. A mixed-gender cryopreserved pool of 10 human donors (X008001-P; lot YFA) was used to seed the plates and was purchased from BioreclamationIVT (Westbury, NY). MPCC hepatocytes are plated with fibroblasts in a 1:3 ratio with ˜25,000 hepatocytes/well in a 24-well plate. 24-Well MPCC plates were shipped to Pfizer, fresh medium (400 μL/well) was applied and cultures were kept at 37° C. with […] and 95% relative humidity for two days. Micropatterned co-cultures containing pooled hepatocytes were allowed 7 days to fully stabilize with respect to liver-specific functions. […] At respective time points (0, 2, and 7 days), the culture medium was removed and mixed with 4 volumes of ACN, then stored frozen at −40° C. until samples could be analyzed. Samples were subsequently processed by the addition of 2.5 mL of 1:1 ACN:MeOH containing 0.1% formic acid. After vortexing, the samples were centrifuged at 1900×g for 5 min, then the supernatant was transferred to 15 mL conical tubes and evaporated under N2 using a Turbovap set at 37° C. The residues were reconstituted in mobile phase (5:95 v:v ACN:0.1% aqueous formic acid) prior to analysis by HPLC/UV/MS^n.
as §3
as §4, with “Data-dependent MS^n spectra were acquired in an automated fashion at 15,000 resolving power using CID and HCD fragmentation with normalized collision energy settings of 28 and 65 V, respectively.” left out

[6] = test system: mouse hepatocytes; assay: In vitro metabolism of Compound 2 in mouse cryopreserved hepatocytes; format: in vitro ADME; parameters: key to Relative abundance of metabolite of Compound 2, Mouse: ND Not detected.; trace: Trace: observed by HPLC/MS measurements only.; + Minor as assessed by HPLC/UV measurements; ++ moderate as assessed by HPLC/UV measurements; +++ major as assessed by HPLC/UV measurements.; * m/z 593 and m/z 505 co-eluted in rabbit hepatocytes.; ** m/z 591 c and m/z 593 were merged in human hepatocytes and Hepatopack.; *** m/z 607 and m/z 751 b were merged in rabbit hepatocytes; conditions: for metabolite of Compound 2 observed in mouse hepatocyte incubations: 10 μM Compound 2, 7.5×10^5 cells/mL, 1 and 4 hrs composite; for Relative abundance of metabolite of Compound 2, Mouse: mouse cryopreserved hepatocytes, HPLC/UV/MS
Description: as §1, §2, §3, §4, §5

[7] = Circulating metabolites of Compound 2 in rat plasma following a 1.0 mg/kg IV bolus dose; format: in vivo; conditions: 1.0 mg/kg IV bolus dose of Compound 2, pooled 0.033-24 hrs
Description: (§6) Plasma and bile samples were obtained from a bile duct cannulated rat experiment (Study PK-0111) in which a 1.0 mg/kg IV bolus dose was administered to fed male rats (N=3). No control plasma was available from this experiment.
Clin Pharmacol Ther 1981; 29(3):408-13]. The entire volume of each replicate Hamilton pool was combined to create a single pooled sample (576 μL) for analysis.
(§7) Pooled plasma and bile samples were extracted with ACN containing 0.1% formic acid, and after centrifugation at 1900×g, the supernatant was transferred to clean tubes and evaporated under N2 in a Turbovap set at 37° C. Residues were reconstituted in mobile phase (5:95 v:v ACN:0.1% aqueous formic acid) prior to analysis by HPLC/UV/MS^n.
as §3, §4, §5

[8] = Metabolites of Compound 2 in rat bile following a 1.0 mg/kg IV bolus dose; format: in vivo; conditions: 1.0 mg/kg IV bolus dose of Compound 2, bile duct cannulated rats, pooled 0-24 hrs
Description: as §6
Bile samples (0-3, 3-7, and 7-24 hrs) from individual animals were pooled in proportion to the amount collect in each interval. Then 0.5 mL of each individual pool was combined to prepare a composite sample for analysis.
as §7, §3, §4, §5

[9] = biological target: T1, human GLP-1R (Homo sapiens, UniProt P43220, L260F); assay: CHO GLP-1R Clone C6 - Assay 2 (HTRF cAMP agonist assay, low receptor density); format: cell-based; conditions: CHO GLP-1R Clone C6 (low receptor density); for Emax: arithmetic mean, relative to 1 μM GLP-1
T1 construct: expressed in transfected cells
T1 sequence (P43220 24-463 L260F): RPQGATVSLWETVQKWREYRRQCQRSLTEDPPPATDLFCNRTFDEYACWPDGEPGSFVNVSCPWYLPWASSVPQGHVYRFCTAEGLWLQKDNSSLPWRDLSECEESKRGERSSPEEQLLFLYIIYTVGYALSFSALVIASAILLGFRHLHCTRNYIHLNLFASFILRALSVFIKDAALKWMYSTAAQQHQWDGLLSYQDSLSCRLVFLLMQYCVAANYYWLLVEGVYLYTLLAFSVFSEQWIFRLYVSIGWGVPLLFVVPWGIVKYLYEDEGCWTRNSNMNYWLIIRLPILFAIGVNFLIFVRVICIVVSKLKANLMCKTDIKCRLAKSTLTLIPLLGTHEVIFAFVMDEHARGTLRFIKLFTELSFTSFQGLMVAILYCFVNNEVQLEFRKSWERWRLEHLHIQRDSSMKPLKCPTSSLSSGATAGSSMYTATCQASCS
Description: GLP-1R-mediated agonist activity was determined with a cell-based functional assay utilizing an HTRF (Homogeneous Time-Resolved Fluorescence) cAMP detection kit (cAMP HI Range Assay Kit; Cis Bio cat #62AM6PEJ) that measures cAMP levels in the cell. The method is a competitive immunoassay between native cAMP produced by the cells and exogenous cAMP labeled with the dye d2. The tracer binding is visualized by a mAb anti-cAMP labeled with Cryptate. The specific signal (i.e. energy transfer) is inversely proportional to the concentration of cAMP in either a standard or an experimental sample.
The human GLP-1R coding sequence (NCBI Reference Sequence NP_002053.3, including naturally-occurring variant Leu260Phe) was subcloned into pcDNA5-FRT-TO and a clonal CHO cell line stably expressing a low receptor density was isolated using the Flp-In™ T-Rex™ System, as described by the manufacturer (ThermoFisher).
Cells were removed from cryopreservation, re-suspended in 40 mL of Dulbecco's Phosphate Buffered Saline (DPBS—Lonza Cat #17-512Q) and centrifuged at 800×g for 5 minutes at 22° C. The DPBS was aspirated, and the cell pellet was re-suspended in 10 mL of complete growth medium (DMEM:F12 1:1 Mixture with HEPES, L-Gln, 500 mL (DMEM/F12 Lonza Cat #12-719F), 10% heat inactivated fetal bovine serum (Gibco Cat #16140-071), 5 mL of 100× Pen-Strep (Gibco Cat #15140-122), 5 mL of 100× L-Glutamine (Gibco Cat #25030-081), 700 μg/mL Hygromycin (Invitrogen Cat #10687010) and 15 μg/mL Blasticidin (Gibco Cat #R21001). A 1 mL sample of the cell suspension in growth media was counted on a Becton Dickinson ViCell to determine cell viability and cell count per mL. The remaining cell suspension was then adjusted with growth media to deliver 1600 viable cells per well using a Matrix Combi Multidrop reagent dispenser, and the cells were dispensed into a white 384 well tissue culture treated assay plate (Corning 3570). The assay plate was then incubated for 48 hours at 37° C. in a humidified environment (95% O2, 5% CO2)
Varying concentrations of each compound to be tested (in DMSO) were diluted in assay buffer [HBSS with Calcium/Magnesium (Lonza/BioWhittaker cat #10-527F)/0.1% BSA (Sigma Aldrich cat #A7409-1L)/20 mM HEPES (Lonza/BioWhittaker cat #17-737E)] containing 100 μM 3-isobutyl-1-methylxanthin (IBMX; Sigma cat #15879). The final DMSO concentration in the compound/assay buffer mixture is 1%.
After 48 hours, the growth media was removed from the assay plate wells, and the cells were treated with 20 μL of the serially diluted compound in assay buffer for 30 minutes at 37° C. in a humidified environment (95% O2, 5% CO2). Following the 30 minute incubation, 10 μL of labeled d2 cAMP and 10 μL of anti-cAMP antibody (both diluted 1:20 in cell lysis buffer; as described in the manufacturer's assay protocol) were added to each well of the assay plate. The plates were then incubated at room temperature and after 60 minutes, changes in the HTRF signal were read with an Envision 2104 multi-label plate reader using excitation of 330 nm and emissions of 615 and 665 nm. Raw data were converted to nM cAMP by interpolation from a cAMP standard curve (as described in the manufacturer's assay protocol) and the percent effect was determined relative to a saturating concentration of the full agonist GLP-1 (1 μM) included on each plate. EC50 determinations were made from agonist dose response curves analyzed with a curve fitting program using a 4-parameter logistic dose response equation.

[10] = biological target: human GLP-1R (Homo sapiens, UniProt P43220, G168S); assay: CHO GLP-1R Clone H6 - Assay 1 (HTRF cAMP agonist assay); conditions: read-out: Assay 1 Emax (%)
human GLP-1R (Homo sapiens, UniProt P43220, G168S), sequence (P43220 24-463 G168S): as the sequence (P43220 24-463 L260F) above, with G145S, F237L counted along it
Description: (§8) GLP-1R-mediated agonist activity was determined with a cell-based functional assay utilizing an HTRF (Homogeneous Time-Resolved Fluorescence) cAMP detection kit (cAMP HI Range Assay Kit; CisBio cat #62AM6PEJ) that measures cAMP levels in the cell. The method is a competitive immunoassay between native cAMP produced by the cells and exogenous cAMP labeled with the dye d2. The tracer binding is visualized by a mAb anti-cAMP labeled with Cryptate. The specific signal (i.e. energy transfer) is inversely proportional to the concentration of cAMP in either standard or experimental sample.
(§9) The human GLP-1R coding sequence (NCBI Reference Sequence NP_002053.3, including naturally-occurring variant Gly168Ser) was subcloned into pcDNA3 (Invitrogen) and a cell line stably expressing the receptor was isolated (designated Clone H6).
(§10) Cells were removed from cryopreservation, re-suspended in 40 mL of Dulbecco's Phosphate Buffered Saline (DPBS—Lonza Cat #17-512Q) and centrifuged at 800×g for 5 minutes at 22° C. The cell pellet was then re-suspended in 10 mL of growth medium [DMEM/F12 1:1 Mixture with HEPES, L-Gln, 500 mL (DMEM/F12 Lonza Cat #12-719F), 10% heat inactivated fetal bovine serum (Gibco Cat #16140-071), 5 mL of 100× Pen-Strep (Gibco Cat #15140-122), 5 mL of 100× L-Glutamine (Gibco Cat #25030-081) and 500 μg/mL Geneticin (G418) (Invitrogen #10131035)]. A 1 mL sample of the cell suspension in growth media was counted on a Becton Dickinson ViCell to determine cell viability and cell count per mL. The remaining cell suspension was then adjusted with growth media to deliver 2000 viable cells per well using a Matrix Combi Multidrop reagent dispenser, and the cells were dispensed into a white 384 well tissue culture treated assay plate (Corning 3570). The assay plate was then incubated for 48 hours at 37° C. in a humidified environment in 5% carbon dioxide.
(§11) Varying concentrations of each compound to be tested (in DMSO) were diluted in assay buffer (HBSS with Calcium/Magnesium (Lonza/BioWhittaker cat #10-527F)/0.1% BSA (Sigma Aldrich cat #A7409-1L)/20 mM HEPES (Lonza/BioWhittaker cat #17-737E) containing 100 μM 3-isobutyl-1-methylxanthin (IBMX; Sigma cat #15879). The final DMSO concentration is 1%.
(§12) After 48 hours, the growth media was removed from the assay plate wells, and the cells were treated with 20 μL of the serially diluted compound in assay buffer for 30 minutes at 37° C. in a humidified environment in 5% carbon dioxide. Following the 30 minute incubation, 10 μL of labeled d2 cAMP and 10 μL of anti-cAMP antibody (both diluted 1:20 in cell lysis buffer; as described in the manufacturer's assay protocol) were added to each well of the assay plate. The plates were then incubated at room temperature and after 60 minutes, changes in the HTRF signal were read with an Envision 2104 multi-label plate reader using excitation of 330 nm and emissions of 615 and 665 nm. Raw data were converted to nM cAMP by interpolation from a cAMP standard curve (as described in the manufacturer's assay protocol) and the percent effect was determined relative to a saturating concentration of the full agonist GLP-17-36 (1 μM) included on each plate. EC50 determinations were made from agonist dose-response curves analyzed with a curve fitting program using a 4-parameter logistic dose response equation.

[11] = Metabolite profiling of pooled human plasma after repeat oral dosing of Compound 1 (HPLC/UV/MS)
Description: Plasma samples from nine human subjects following oral administration of 120 mg BID for 28 days in a clinical study were examined for metabolites.
Individual subject's plasma (from nine human subjects with 120 mg BID dose Day 28) were pooled in proportion to the time period represented by each to yield a pool for profiling that was representative of the AUC (0-12 hr) according to the method of Hamilton et al. [Hamilton R A, Garnett W R, Kline B J. Determination of a mean valproic acid serum level by assay of a single pooled sample. […] Pooled plasma time points were first prepared by aliquoting equal amounts (1.0 mL) of plasma from each subject prior to making a single Hamilton pool. Blank plasma pools were made by taking equal aliquots of predose samples. To a 2 mL aliquot of each pooled plasma sample was added 6 mL of acetonitrile and then mixed. Protein precipitated samples were centrifuged for 5 minutes at 2000×g and the supernatants were transferred to other clean 15 mL centrifuge tubes. Samples were dried using an evaporative centrifuge set to 37° C. Samples were reconstituted using 0.2 mL of 5:95 acetonitrile:water and analyzed by HPLC/UV/MS.
Reconstituted samples were analyzed by positive ion HPLC/UV/MS using a Thermo Orbitrap Elite mass spectrometer operating in positive ion electrospray mode. Xcalibur software version 3.0.63 was used to control the HPLC/UV/MS system. Full scan data were collected at 15,000 resolution. Data dependent product ion scans of the two most intense ions found in the full scan were obtained at 15,000 resolution. The dynamic exclusion function was used with a 10 second exclusion duration after 3 successive product ion scans with an early exclusion if the precursor ion fell below a signal to noise ratio of 20. The HPLC system consisted of an Accela quaternary solvent delivery pump, an Accela autoinjector, an Accela PDA Plus photodiode array detector (Thermo Electron Corporation). Chromatography was performed on a Phenomenex Kinetex column (2.1 mm×100 mm, 2.6 μm) at 45° C. using a HotSleeve column heater (Analytical Sales and Services). The mobile phase was composed of 0.1% formic acid in water (solvent A) and acetonitrile (solvent B). The solvent delivery gradient program was as follows:

[12] = biological target: human GLP-1R (Homo sapiens, UniProt P43220); assay: CHO GLP-1R Clone H6 - Assay 1 (HTRF cAMP agonist assay)
human GLP-1R (Homo sapiens, UniProt P43220), sequence (P43220 24-463 G168S): as the sequence (P43220 24-463 L260F) above, with G145S, F237L counted along it
Description: as §8, §9, §10, §11, §12

metabolite of Compound 2 observed in monkey hepatocyte incubations [1] | Relative abundance of metabolite of Compound 2, Monkey [1] | metabolite of Compound 2 observed in rat hepatocyte incubations [2] | Relative abundance of metabolite of Compound 2, Rat [2] | metabolite of Compound 2 observed in human hepatocyte incubations [3] | Relative abundance of metabolite of Compound 2, Human [3] | metabolite of Compound 2 observed in rabbit hepatocyte incubations [4] | Relative abundance of metabolite of Compound 2, Rabbit [4] | Relative abundance of metabolite of Compound 2, Hepatopack [5] | metabolite of Compound 2 observed in mouse hepatocyte incubations [6] | Relative abundance of metabolite of Compound 2, Mouse [6] | detected in rat plasma [7] | detected in rat bile [8] | Emax [9] [%] | Emax [10] [%] | observed as major or minor metabolite in human plasma ([11]; Compound 1 120 mg BID, Day 28) | Plasma Extracts ([11]; Compound 1 120 mg oral BID, Day 28, HPLC/UV/MS) | pEC50 ([9]; geometric mean) | pEC50 [12] | Compound
observed in all hepatocyte incubations | + | observed in all hepatocyte incubations | trace | observed in all hepatocyte incubations | ** | observed in all hepatocyte incubations | +++ | ** | observed in all hepatocyte incubations | + | – | – | – | – | – | – | – | – | C[C@]1(c2ccc(Cl)cn2)Oc2cccc(C3CCN(Cc4nc5ccc(C(=O)O)cc5n4CC(O)CCO)CC3)c2O1 (stereo in doubt) [Metabolite 593]
– | – | – | – | – | – | – | – | – | – | – | detected | detected | 96 | 99 | – | – | – | – | C[C@]1(c2ccc(Cl)cn2)Oc2cccc(C3CCN(Cc4nc5ccc(C(=O)O)cc5n4C[C@@H]4CCO4)CC3)c2O1 [Compound 2, 2-((4-((S)-2-(5-chloropyridin-2-yl)-2-methylbenzo[d][1,3]dioxol-4-yl)piperidin-1-yl)methyl)-1-(((S)-oxetan-2-yl)methyl)-1H-benzo[d]imidazole-6-carboxylic acid]
– | – | – | – | – | – | – | – | – | – | – | – | – | 98 | 114 | minor metabolite | + | 5.60 | 6.89 | N#Cc1ccc(COc2cccc(C3CCN(Cc4nc5ccc(C(=O)O[C@@H]6O[C@H](C(=O)O)[C@@H](O)[C@H](O)[C@H]6O)cc5n4C[C@@H]4CCO4)CC3)n2)c(F)c1 [Compound M1, (2S,3S,4S,5R,6S)-6-((2-((4-(6-((4-cyano-2-fluorobenzyl)oxy)pyridin-2-yl)piperidin-1-yl)methyl)-1-(((S)-oxetan-2-yl)methyl)-1H-benzo[d]imidazole-6-carbonyl)oxy)-3,4,5-trihydroxytetrahydro-2H-pyran-2-carboxylic acid]
observed in all hepatocyte incubations | trace | observed in all hepatocyte incubations | trace | observed in all hepatocyte incubations | + | observed in all hepatocyte incubations | + | + | observed in all hepatocyte incubations | + | – | – | – | – | – | – | – | – | C[C@]1(c2ccc(Cl)cn2)Oc2cccc(-c3cc[n+](Cc4nc5ccc(C(=O)O)cc5n4C[C@@H]4CCO4)cc3)c2O1 [Metabolite 569]
